Results from ChEMBL document CHEMBL3817755, “Design, synthesis and biological evaluation of indazolepyrimidine based derivatives as anticancer agents with anti-angiogenic and antiproliferative activities” (Medchemcomm, 2016).

Experiments:
Format in all cases: functional
[1] = Growth inhibition of human SNB75 cells at 10 uM after 48 hrs by SRB assay; conditions: SNB-75, 48 h, read-out: GI
[2] = test system: MDA-MB-468; experiment: Growth inhibition of human MDA-MB-468 cells at 10 uM after 48 hrs by SRB assay; conditions: MDA-MB-468, 48 h, read-out: GI
[3] = Growth inhibition of human LOXIMVI cells at 10 uM after 48 hrs by SRB assay; conditions: LOX IMVI, read-out: GI
[4] = Growth inhibition of human OVCAR4 cells at 10 uM after 48 hrs by SRB assay; conditions: OVCAR-4, 48 h, read-out: GI
[5] = test system: CCRF-CEM; experiment: Growth inhibition of human CCRF-CEM cells at 10 uM after 48 hrs by SRB assay; conditions: read-out: GI
[6] = Growth inhibition of human SW620 cells at 10 uM after 48 hrs by SRB assay; conditions: SW-620, 48 h, read-out: GI
[7] = Growth inhibition of human MOLT4 cells at 10 uM after 48 hrs by SRB assay; conditions: MOLT-4, 48 h, read-out: GI
[8] = Growth inhibition of human PC3 cells at 10 uM after 48 hrs by SRB assay; conditions: PC-3, 48 h, read-out: GI
[9] = test system: ACHN; experiment: Growth inhibition of human ACHN cells at 10 uM after 48 hrs by SRB assay; conditions: read-out: GI
[10] = test system: SN12C; experiment: Growth inhibition of human SN12C cells at 10 uM after 48 hrs by SRB assay; conditions: read-out: GI
[11] = test system: HT-29; experiment: Growth inhibition of human HT-29 cells at 10 uM after 48 hrs by SRB assay; conditions: HT-29, 48 h, read-out: GI
[12] = Growth inhibition of human SNB19 cells at 10 uM after 48 hrs by SRB assay; conditions: SNB-19, 48 h, read-out: GI
[13] = Growth inhibition of human NCI-ADR-RES cells at 10 uM after 48 hrs by SRB assay; conditions: read-out: GI
[14] = Growth inhibition of human COLO205 cells at 10 uM after 48 hrs by SRB assay; conditions: COLO 205, 48 h, read-out: GI
[15] = test system: SK-MEL-5; experiment: Growth inhibition of human SK-MEL-5 cells at 10 uM after 48 hrs by SRB assay; conditions: SK-MEL-5, 48 h, read-out: GI
[16] = Growth inhibition of human Hs 578T cells at 10 uM after 48 hrs by SRB assay; conditions: read-out: GI
[17] = Growth inhibition of human HCC2998 cells at 10 uM after 48 hrs by SRB assay; conditions: HCC 2998, 48 h, read-out: GI
[18] = test system: 786-0; experiment: Growth inhibition of human 786-0 cells at 10 uM after 48 hrs by SRB assay; conditions: 786-0, 48 h, read-out: GI
[19] = Growth inhibition of human OVCAR3 cells at 10 uM after 48 hrs by SRB assay; conditions: OVCAR-3, 48 h, read-out: GI
[20] = test system: Malme-3M; experiment: Growth inhibition of human MALME-3M cells at 10 uM after 48 hrs by SRB assay; conditions: read-out: GI
[21] = Growth inhibition of human UACC62 cells at 10 uM after 48 hrs by SRB assay; conditions: UACC-62, 48 h, read-out: GI
[22] = test system: NCI-H522; experiment: Growth inhibition of human NCI-H522 cells at 10 uM after 48 hrs by SRB assay; conditions: NCI-H522, 48 h, read-out: GI
[23] = Growth inhibition of human SF268 cells at 10 uM after 48 hrs by SRB assay; conditions: SF-268, 48 h, read-out: GI
[24] = test system: SR; experiment: Growth inhibition of human SR cells at 10 uM after 48 hrs by SRB assay; conditions: read-out: GI
[25] = Growth inhibition of human IGROV1 cells at 10 uM after 48 hrs by SRB assay; conditions: IGROV-1, 48 h, read-out: GI
[26] = test system: SK-MEL-2; experiment: Growth inhibition of human SK-MEL-2 cells at 10 uM after 48 hrs by SRB assay; conditions: SK-MEL-2, 48 h, read-out: GI
[27] = test system: M14; experiment: Growth inhibition of human M14 cells at 10 uM after 48 hrs by SRB assay; conditions: M14, 48 h, read-out: GI
[28] = test system: EKVX; experiment: Growth inhibition of human EKVX cells at 10 uM after 48 hrs by SRB assay; conditions: read-out: GI
[29] = Growth inhibition of human UO31 cells at 10 uM after 48 hrs by SRB assay; conditions: UO-31, 48 h, read-out: GI
[30] = test system: MDA-MB-435; experiment: Growth inhibition of human MDA-MB-435 cells at 10 uM after 48 hrs by SRB assay; conditions: MDA-MB-435, 48 h, read-out: GI
[31] = Growth inhibition of human HCT116 cells at 10 uM after 48 hrs by SRB assay; conditions: HCT-116, 48 h, read-out: GI
[32] = Growth inhibition of human HL-60(TB) cells at 10 uM after 48 hrs by SRB assay; conditions: HL-60, 48 h, read-out: GI
[33] = test system: NCI-H23; experiment: Growth inhibition of human NCI-H23 cells at 10 uM after 48 hrs by SRB assay; conditions: NCI-H23, 48 h, read-out: GI
[34] = test system: NCI-H460; experiment: Growth inhibition of human NCI-H460 cells at 10 uM after 48 hrs by SRB assay; conditions: NCI-H460, 48 h, read-out: GI
[35] = Growth inhibition of human RPMI8226 cells at 10 uM after 48 hrs by SRB assay; conditions: RPMI-8226, 48 h, read-out: GI
[36] = Growth inhibition of human DU145 cells at 10 uM after 48 hrs by SRB assay; conditions: DU-145, 48 h, read-out: GI
[37] = Growth inhibition of human HOP92 cells at 10 uM after 48 hrs by SRB assay; conditions: HOP-92, 48 h, read-out: GI
[38] = test system: A498; experiment: Growth inhibition of human A498 cells at 10 uM after 48 hrs by SRB assay; conditions: A498, 48 h, read-out: GI
[39] = Growth inhibition of human HOP62 cells at 10 uM after 48 hrs by SRB assay; conditions: HOP-62, 48 h, read-out: GI
[40] = test system: NCI-H226; experiment: Growth inhibition of human NCI-H226 cells at 10 uM after 48 hrs by SRB assay; conditions: NCI-H226, 48 h, read-out: GI
[41] = test system: T47D; experiment: Growth inhibition of human T47D cells at 10 uM after 48 hrs by SRB assay; conditions: read-out: GI
[42] = Growth inhibition of human HCT15 cells at 10 uM after 48 hrs by SRB assay; conditions: HCT-15, 48 h, read-out: GI
[43] = Growth inhibition of human SKOV3 cells at 10 uM after 48 hrs by SRB assay; conditions: SK-OV-3, 48 h, read-out: GI

COc1ccc(Nc2nccc(Nc3ccc4[nH]ncc4c3)n2)cc1
inhibition of growth at 10 µM [1]: 34% | inhibition of growth at 10 µM [2]: 56% | inhibition of growth at 10 µM [3]: 81% | inhibition of growth at 10 µM [4]: 67% | inhibition of growth at 10 µM [5]: 102% | inhibition of growth at 10 µM [6]: 75% | inhibition of growth at 10 µM [7]: 99% | inhibition of growth at 10 µM [8]: 87% | inhibition of growth at 10 µM [9]: 71% | inhibition of growth at 10 µM [10]: 57% | inhibition of growth at 10 µM [11]: 88% | inhibition of growth at 10 µM [12]: 40% | inhibition of growth at 10 µM [13]: 82% | inhibition of growth at 10 µM [14]: 74% | inhibition of growth at 10 µM [15]: 98% | inhibition of growth at 10 µM [16]: 53% | inhibition of growth at 10 µM [17]: 37% | inhibition of growth at 10 µM [18]: 56% | inhibition of growth at 10 µM [19]: 51% | inhibition of growth at 10 µM [20]: 24% | inhibition of growth at 10 µM [21]: 61% | inhibition of growth at 10 µM [22]: 81% | inhibition of growth at 10 µM [23]: 53% | inhibition of growth at 10 µM [24]: 96% | inhibition of growth at 10 µM [25]: 49% | inhibition of growth at 10 µM [26]: 70% | inhibition of growth at 10 µM [27]: 67% | inhibition of growth at 10 µM [28]: 49% | inhibition of growth at 10 µM [29]: 84% | inhibition of growth at 10 µM [30]: 65% | inhibition of growth at 10 µM [31]: 81% | inhibition of growth at 10 µM [32]: 40% | inhibition of growth at 10 µM [33]: 60% | inhibition of growth at 10 µM [34]: 75% | inhibition of growth at 10 µM [35]: 97% | inhibition of growth at 10 µM [36]: 68% | inhibition of growth at 10 µM [37]: 101% | inhibition of growth at 10 µM [38]: 63% | inhibition of growth at 10 µM [39]: 51% | inhibition of growth at 10 µM [40]: 72% | inhibition of growth at 10 µM [41]: 104% | inhibition of growth at 10 µM [42]: 94% | inhibition of growth at 10 µM [43]: 48%
